In the supplement of paper PMC5844555:

Legend:
Assay in all cases: 3' UTR reporter interaction score (median-centred robust z-score of log2 firefly/Renilla activity); higher = less repression of the 3' UTR reporter
Conditions in all cases: HEK293T; 48 h
EZH2 = tested on: EZH2
Outline: (§1)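 Using DharmaFECT Duo, HEK293T cells (10,000/well, 96-well plates) were co-transfected with 2.5 pmol miRNA mimic, 100 ng firefly luc2P reporter containing the gene's 3' UTR and 20 ng Renilla pRL-TK control, and dual-luciferase activity was read 48 h later. The interaction score is the log firefly/Renilla ratio as a per-plate robust z-score (median, median absolute deviation), median-centred per miRNA, averaged over at least two independent screens; lower, more negative values indicate interaction.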

PHF6 = tested on: PHF6
Outline: as §1

MYT1L = tested on: MYT1L
Outline: as §1

HRAS = tested on: HRAS
Outline: as §1

ZEB2 = tested on: ZEB2
Outline: as §1

MYCN = tested on: MYCN
Outline: as §1

RB1 = tested on: RB1
Outline: as §1

TP53 = tested on: TP53
Outline: as §1

NOTCH1 = tested on: NOTCH1
Outline: as §1

FBXW7 = tested on: FBXW7
Outline: as §1

PHOX2B = tested on: PHOX2B
Outline: as §1

BRCA2 = tested on: BRCA2
Outline: as §1

MYC = tested on: MYC
Outline: as §1

MYB = tested on: MYB
Outline: as §1

| Sequence | 3' UTR reporter interaction score (EZH2) | 3' UTR reporter interaction score (PHF6) | 3' UTR reporter interaction score (MYT1L) | 3' UTR reporter interaction score (HRAS) | 3' UTR reporter interaction score (ZEB2) | 3' UTR reporter interaction score (MYCN) | 3' UTR reporter interaction score (RB1) | 3' UTR reporter interaction score (TP53) | 3' UTR reporter interaction score (NOTCH1) | 3' UTR reporter interaction score (FBXW7) | 3' UTR reporter interaction score (PHOX2B) | 3' UTR reporter interaction score (BRCA2) | 3' UTR reporter interaction score (MYC) | 3' UTR reporter interaction score (MYB) |
| --- | --- | --- | --- | --- | --- | --- | --- | --- | --- | --- | --- | --- | --- | --- |
| UCUGGCUCCGUGUCUUCACUCC | 0.8 | -0.567 | 1.3 | 1.54 | 1.83 | 1.42 | 0.119 | 0.211 | -2.05 | -0.481 | 1.22 | 0.156 | -0.629 | -1.3 |
| UCUUGGAGUAGGUCAUUGGGUGG | 0.166 | 1.13 | -0.548 | 1.18 | 1.13 | -0.819 | -0.403 | 0.12 | -0.846 | -2.32 | -1.26 | 0.0799 | 0.457 | -0.086 |
| UCUUGUGUUCUCUAGAUCAGU | 0.661 | -1.56 | -0.612 | 0.641 | 0.366 | 0.747 | 0.632 | -0.0759 | -0.00434 | -0.787 | -1.16 | 0.0649 | -0.281 | 0.224 |
| UCUUUGGUUAUCUAGCUGUAUGA | 0.57 | 0.471 | -0.093 | 0.757 | 0.948 | -0.305 | 0.127 | -1.13 | -0.836 | 0.588 | -0.756 | -0.397 | -0.165 | -0.0519 |
| UGAAACAUACACGGGAAACCUCUU | 0.948 | 2.68 | 0.0487 | -0.108 | 0.135 | -2.74 | -0.893 | -0.757 | 2.03 | 1.59 | -0.468 | 0.436 | -4.26 | -0.521 |
| UGAAGGUCUACUGUGUGCCAG | 0.277 | -1.33 | -2.06 | -0.000203 | 0.194 | 0.394 | -1.18 | 1.34 | -0.37 | 0.56 | 0.626 | -0.173 | -0.0308 | 0.992 |
| UGACAACUAUGGAUGAGCUCU | 0.197 | -0.469 | 0.836 | -0.056 | 0.125 | 0.478 | -2.61 | 0.025 | -0.339 | 0.175 | -0.766 | -0.499 | 0.174 | 0.977 |
| UGAGAACUGAAUUCCAUAGGCU | 0.351 | 0.668 | 0.753 | -0.193 | 0.486 | 0.165 | -0.182 | -0.401 | -0.287 | -1.39 | -0.835 | -1.45 | 0.179 | 0.897 |
| UGAGAACUGAAUUCCAUGGGUU | 0.673 | 1.46 | 0.806 | -0.164 | 1.41 | 0.702 | -0.62 | -0.136 | -0.245 | -0.989 | -1.1 | -1.66 | -0.0139 | 1.11 |
| UGAGACCUCUGGGUUCUGAGCU | 1.01 | -0.429 | 0.762 | -0.0086 | 1.27 | 0.725 | 0.176 | -1.24 | 0.17 | 0.371 | -0.781 | -3.69 | 0.551 | -1.3 |
| UGAGAUGAAGCACUGUAGCUCA | -0.134 | -0.896 | -0.193 | 0.321 | 0.313 | 0.577 | -0.192 | -0.632 | 0.298 | 0.851 | -0.89 | 1.09 | 0.59 | 0.448 |
| UGAGCUAAAUGUGUGCUGGGA | 0.105 | -0.0551 | 1.13 | -0.575 | 0.263 | 0.0799 | -0.0745 | 0.237 | -0.446 | -0.406 | 0.175 | -0.453 | -0.176 | 0.373 |
| UGAGCUGCUGUACCAAAAU | -0.391 | 0.476 | 0.273 | -0.0544 | 0.288 | -1.43 | 0.104 | -0.00622 | 0.526 | 0.267 | 1.09 | -0.363 | -0.354 | -0.26 |
| UGAGGUAGUAAGUUGUAUUGUU | -3.5 | -0.107 | 0.292 | 0.519 | 0.389 | -4.78 | 0.186 | -0.165 | 0.263 | 0.412 | -0.47 | 0.117 | -2.7 | 0.37 |
| UGAGGUAGUAGAUUGUAUAGUU | -5.6 | 0.283 | 0.00725 | 0.942 | -0.843 | -4.33 | 0.338 | -0.262 | -0.987 | 0.329 | 0.189 | 0.246 | -2.66 | 0.461 |
| UGAGGUAGUAGGUUGUAUAGUU | -3.3 | 2.23 | -0.405 | 0.245 | -0.683 | -4.02 | -1.04 | 0.766 | -0.241 | 0.0535 | -1.51 | 0.954 | -1.94 | 0.376 |
| UGAGGUAGUAGGUUGUGUGGUU | -3.63 | 0.852 | 0.566 | 0.13 | -1.14 | -4.48 | 1.01e-16 | 0.495 | -0.305 | 0.642 | 0.11 | 1.21 | -4.84 | 0.859 |
| UGAGGUAGUAGUUUGUACAGU | -4.15 | -0.221 | 0.517 | 1.06 | -1.5 | -3.87 | 0.426 | 0.627 | 0.637 | -0.143 | 0.114 | 0.445 | -2.59 | 0.441 |
| UGAGGUAGUAGUUUGUGCUGU | -4.28 | 0.213 | 0.99 | 1.26 | 0.496 | -3.97 | 0.903 | 0.534 | -0.444 | 0.144 | -1.23 | 0.294 | -3 | 1.1 |
